Assay results: patent US7892350B2, “Sacrificial agents for fly ash concrete” (Boral Material Technologies Inc., priority 2003, dated 2011)
Where two headings read alike, the source gives them in different places.

What was measured:
[1] = Paste air entrainment, Maximum air protocol; conditions: for Average of air entrained at 66 min: over the fly ash:PCA pastes of Table 9
Experimental: Preparation of pastes: Pastes were prepared by pouring 400 g of cementitious powder in the 350-400 g of solution (water and additives) in a vessel (8.4 cm dia,×14.5 cm height) while gently stirring with a spatula; the exact quantity of water depends on the selected W/B ratio (see below); rapid hand mixing was continued for 1 minute, followed by intense stirring at 25° C. during 2 min using a hand-held mixer (BRAUN model MR400). The level of air entrained is dependent on the mode of utilisation of the mixer, namely the height of the mixer from the bottom of the vessel and the length of the mixing stroke; the following protocols were adopted.
Fluidity measurements: For all air entrainment measurements, the initial fluidity of the paste (without additives) was controlled using the ‘mini-slump’ procedure widely used for paste and grouts. In this protocol, a portion of the paste was transferred into the min-slump cone (a 2¼″ high, 1½″ bottom diameter, ¾″ top diameter cone); excess paste was skimmed-off with a straight; the cone was then raised and the spread diameter of the paste was recorded (average of two measurements). The fluidity is measured at 10 minutes after mixing. The paste is returned to the batch and reserved for subsequent AE measurements. The fluidity of the paste (without SA and AEA) is adjusted by changing the amount of water (water/cementitious ratio) which yields a spread diameter of 115±5 mm. The latter is monitored regularly.
Air entrainment measurements: For air entrainment measurements, a portion of the paste was transferred to overfill a Plexiglas cylinder (3¾ inches height, 2 inches interior diameter), which was then levelled flush to the top of the cylinder with a straight edge. The mass of the filled cylinder, minus the weight of the empty cylinder, is then recorded and used to calculate the amount of air according to the following formula: […]
This procedure was carried out at three times at 30 min. intervals (6, 36 and 66 min); the paste was let to stand at rest between measurements, and was stirred gently by hand for one minute prior to the subsequent air entrainment measurements.
Other combinations of air entrainment agents and sacrificial agents were prepared as stock solutions following the procedure outlined above, adjusting the weights of the various components to achieve the desired component ratios.

[2] = Second sacrificial agent testing protocol: paste air measurements with DDBS (0.0125 wt %) and rating; on Overall performance rating (second protocol rating): key: 0: Fail; 1: Poor; 2: Good; 3: Preferred; 4: Most preferred; on SA Rating (0-4): key: 0: Fail; 1: Poor; 2: Good; 3: Preferred; 4: Most preferred
Outline: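 Air entrainment was measured in cement pastes of fixed composition and fluidity. The candidate agent was tested alone at 0.1 wt % in a cement-only paste. It was also tested at 0.05 and 0.1 wt % in a fly ash (B1)-cement paste with DDBS, where air recovery was calculated against the same paste without agent.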

[3] = 50:50 fly ash B1 (LOI 4.36%):PCA paste, Air 30 (0.0125 wt %)/ND/X=1/4/4, X = the labelled SA
[4] = 50:50 fly ash C1 (LOI 1.62%):PCA paste, Air 30 (0.0125 wt %)/ND/X=1/4/4, X = the labelled SA
[5] = 50:50 fly ash D (LOI […]):PCA paste, Air 30 (0.0125 wt %)/ND/X=1/4/4, X = the labelled SA
[6] = 50:50 fly ash M1 (LOI […]):PCA paste, Air 30 (0.0125 wt %)/ND/X=1/4/4, X = the labelled SA
[7] = 50:50 fly ash M2 (LOI 5.34%):PCA paste, Air 30 (0.0125 wt %)/ND/X=1/4/4, X = the labelled SA
[8] = 50:50 fly ash M3 (LOI 11.33%):PCA paste, Air 30 (0.0125 wt %)/ND/X=1/4/4, X = the labelled SA
[9] = 50:50 fly ash R (LOI […]):PCA paste, Air 30 (0.0125 wt %)/ND/X=1/4/4, X = the labelled SA
[10] = PCA paste, no fly ash, Air 30 (0.0125 wt %)/ND/X=1/4/4, X = the labelled SA
[11] = Air 30 (0.0125 wt %)/ND/X=1/4/4, X = the labelled SA
[12] = Portland cement paste (PCA), […]
[13] = sacrificial agent overall rating index
[14] = sum of ratings of air entrainment recovery by 0.05% and 0.1% SA, DDBS 0.0125 wt %, 50:50 B1 fly ash:cement paste

| Compound | Air entrained at 66 min [1, 3] [vol %] | Air entrained at 66 min [1, 4] [vol %] | Air entrained at 66 min [1, 5] [vol %] | Air entrained at 66 min [1, 6] [vol %] | Air entrained at 66 min [1, 7] [vol %] | Air entrained at 66 min [1, 8] [vol %] | Air entrained at 66 min [1, 9] [vol %] | Air entrained at 66 min [1, 10] [vol %] | Average of air entrained at 66 min [1, 11] [%] | Overall performance rating (second protocol rating) [2] | PCA + 0.1% SA (level of air entrainment by the candidate sacrificial agent) [2, 12] | SA Rating (0-4) [2, 13] | other results |
| --- | --- | --- | --- | --- | --- | --- | --- | --- | --- | --- | --- | --- | --- |
| CC(O)C(O)c1ccccc1 (centres unmarked) [1-Phe 2-Pro, 1-Phenyl 2-propylene glycol] | 13 | 18 | 18 | 16 | 9 | 13 | 16 | 17 | 15 | – | – | – | – |
| CCCCOCCOCCO [Di-EGBE, Di-ethylene glycol butyl ether] | 16 | 21 | 24 | 21 | 11 | 17 | 22 | 22 | 19 | 4 | 2.7 | 4 | B1 + 0.0125% DDBS + 0.05% SA (air entrainment) ([2]; B1 FA/cement paste, […]): 9.9; B1 + 0.0125% DDBS + 0.1% SA (air entrainment) ([2]; B1 FA/cement paste, […]): 11.2 |
| COC(C)COC(C)CO (centres unmarked) [Di-PGME, Di-propylene glycol methyl ether] | 16 | 21 | 25 | 20 | 11 | 15 | 20 | 23 | 18 | – | 1.1 | 4 | B1 + 0.0125% DDBS + 0.05% SA (air entrainment) ([2]; B1 FA/cement paste, 0.0125 wt % DDBS, 0.05 wt % SA): 8.7; B1 + 0.0125% DDBS + 0.1% SA (air entrainment) ([2]; B1 FA/cement paste, 0.0125 wt % DDBS, 0.10 wt % SA): 9.7; Overall performance rating (second protocol rating) [2, 14]: 4 |
| COCCO [EGME, Ethylene glycol methyl ether] | 12 | 20 | 20 | 17 | 8 | 12 | 17 | 18 | 15 | 1 | – | – | B1 + 0.0125% DDBS + 0.05% SA (air entrainment) [2]: 3.3; B1 + 0.0125% DDBS + 0.1% SA (air entrainment) [2]: 4.3; PCA + 0.1% SA (level of air entrainment by the candidate sacrificial agent) [2]: 0.7; SA Rating (0-4) [2]: 1 |
| OCC(O)CO [Glycerol] | 12 | 18 | 18 | 16 | 7 | 11 | 18 | 16 | 14 | 2 | 0.1 | 2 | B1 + 0.0125% DDBS + 0.1% SA (air entrainment) ([2]; B1 FA/cement paste, […]): 2.3 |
| Polyethylene glycol (Molecular weight = 200) [PEG 200] | 14 | – | 20 | 19 | 9 | – | 18 | 18 | 16 | – | – | – | Overall performance rating (second protocol rating) [2, 14]: 3 |
| Polyethylene glycol (Molecular weight = 1500) [PEG 1500] | 14 | – | 21 | 18 | 9 | – | 18 | 20 | 16 | – | – | – | Air entrained at 66 min ([1]; 50:50 fly ash B1 (LOI 4.36%):PCA paste, Air 30 (0.0125%)/NS/X=1/4/4, X = the labelled SA): 8 vol %; Air entrained at 66 min ([1]; 50:50 fly ash D (LOI […]):PCA paste, Air 30 (0.0125%)/NS/X=1/4/4, X = the labelled SA): 19 vol %; Air entrained at 66 min ([1]; 50:50 fly ash M1 (LOI […]):PCA paste, Air 30 (0.0125%)/NS/X=1/4/4, X = the labelled SA): 18 vol %; Air entrained at 66 min ([1]; 50:50 fly ash M2 (LOI 5.34%):PCA paste, Air 30 (0.0125%)/NS/X=1/4/4, X = the labelled SA): 5 vol %; Air entrained at 66 min ([1]; 50:50 fly ash R (LOI […]):PCA paste, Air 30 (0.0125%)/NS/X=1/4/4, X = the labelled SA): 16 vol %; Air entrained at 66 min ([1]; PCA paste, no fly ash, Air 30 (0.0125%)/NS/X=1/4/4, X = the labelled SA): 11 vol % |
| Sodium di-butyl naphthalene sulfonate [DBNS] | – | – | – | – | – | – | – | – | – | – | – | – | Air entrained at 66 min ([1]; 50:50 fly ash B1 (LOI 4.36%):PCA paste, Air 30 (0.0125 wt %)/X/ButOH=1/4/4, X = the labelled sulfonated SA): 11 vol %; Air entrained at 66 min ([1]; 50:50 fly ash D (LOI […]):PCA paste, Air 30 (0.0125 wt %)/X/ButOH=1/4/4, X = the labelled sulfonated SA): 20 vol %; Air entrained at 66 min ([1]; 50:50 fly ash M2 (LOI 5.34%):PCA paste, Air 30 (0.0125 wt %)/X/ButOH=1/4/4, X = the labelled sulfonated SA): 7 vol %; Air entrained at 66 min ([1]; PCA paste, no fly ash, Air 30 (0.0125 wt %)/X/ButOH=1/4/4, X = the labelled sulfonated SA): 17 vol % |
